Source: patent US20060269942A1, “In situ click chemistry method for screening high affinity molecular imaging probes” (priority 2005, published 2006)
Read-outs that look alike come from different tables or passages of the source.

Tests used:
[1] = target: T1, human carbonic anhydrase II (Homo sapiens, UniProt P00918); assay: Titration of human carbonic anhydrase II with DNSA (fluorescence); format: binding; settings: enzyme 200 nM in pH 7.4 phosphate buffer, titrated with DNSA; read-out: dissociation constant (Kd) of CA·DNSA
T1 construct: Carbonic anhydrase II from human erythrocytes; purchased Sigma Aldrich C-6165; host or cells: human erythrocytes (natural source)
Text: (§1) General. Carbonic anhydrase II from bovine erythrocytes (Sigma-Aldrich, catalog number C2522; lot number 083K9295, 4,014 Wilbur-Anderson units/mg, 90% protein content by Biuret) was used for in situ click chemistry experiments and for the determination of binding constants. We tested the protein by SDS gel electrophoresis and found it to display a single band corresponding to 29-30,000 molecular weight units. Carbonic anhydrase II from human erythrocytes (Sigma Aldrich, catalog number C-6165, 4,260 wilbur-anderson units/mg) was used for the determination of binding affinities for the human enzyme. All fluorescence measurements were performed on a SPECTRA MAX GEMINI fluorescence plate reader at 37° C. […]
(§2) General. The fluorescence competition assay developed by Whitesides et al. (J. Am. Chem. Soc. 1994, 116, 5057) and J. C. […] The assay is based on the observation that the only fluorescence signal detected at 460 nm upon excitation at 290 nm, an absorption minimum for DNSA, is that of the DNSA·CA complex. With increasing sample concentration the fluorescence intensity due to DNSA·CA decreases as a result of competition with the test compound, allowing the determination of dissociation constants from Scatchard plots. […] The Kd values were determined from Scatchard plots using the equation below as described by Whitesides et.al. [CA·Inh]/[CA]tot·[Inh]=K11inh−K11inh{[CA·Inh]+[CA·DNSA]}/([CA]tot) […]

[2] = target: T2, bovine carbonic anhydrase II (Bos taurus, UniProt P00921); assay: Titration of bovine carbonic anhydrase II with DNSA (fluorescence); format: binding
T2 construct: Carbonic anhydrase II from bovine erythrocytes; purchased Sigma-Aldrich C2522; host or cells: bovine erythrocytes (natural source)
T2 sequence (P00921 whole entry): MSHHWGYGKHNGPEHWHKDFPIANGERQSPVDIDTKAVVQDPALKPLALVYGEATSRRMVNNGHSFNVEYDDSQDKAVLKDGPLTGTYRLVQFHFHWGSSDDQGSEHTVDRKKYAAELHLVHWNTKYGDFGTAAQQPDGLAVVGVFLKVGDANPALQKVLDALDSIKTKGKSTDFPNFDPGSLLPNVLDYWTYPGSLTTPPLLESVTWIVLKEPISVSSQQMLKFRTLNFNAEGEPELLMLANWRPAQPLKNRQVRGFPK
Text: as §1, §2

[3] = target: T3, carbonic anhydrase II (Bos taurus, UniProt P00921); assay: DNSA fluorescence competition binding assay for carbonic anhydrase II; settings: in situ hit of FIG. 4 screen; enzyme species not stated at the place (bovine CA-II used for the screen and binding constants)
T3 construct: Carbonic anhydrase II from bovine erythrocytes; purchased Sigma-Aldrich C2522; host or cells: bovine erythrocytes (natural source)
T3 sequence (P00921 whole entry): as above
Text: as §1, §2

SMILES	Kd [1]	Kd ([2]; determined by titration experiments, value used in the mass balance, enzyme species not stated, read-out: dissociation constant Kd for DNSA)	Kd ([2]; enzyme 200 nM in pH 7.4 phosphate buffer, titrated with DNSA, read-out: dissociation constant (Kd) of CA·DNSA)	Kd [3]
CN(C)c1cccc2c(S(N)(=O)=O)cccc12 [DNSA]	425 nM	390 nM	393 nM	–
CC(C)[C@@H](C(=O)NCc1cc(F)ccn1)n1cc(-c2ccc(S(N)(=O)=O)cc2)nn1 [the product]	–	–	–	0.5 nM
